Peptide text beside a SMILES is read from it.

Series [1] deals with T1, PeDPP11 (PeDPP11_22-717 S652A) (Porphyromonas endodontalis, UniProt F8WQK8, S652A).
T1 construct: genes encoding for C-terminal 6xHis-tagged PeDPP11_22-717 S652A and PgDPP11_22-720 S655A in the pET-22b(+) vector; 6xHis (C); made in house; host or cells: E. coli BL21(DE3)pLysS
In words: Isothermal titration calorimetry (ITC) of peptide binding to PeDPP11. How it is done: All experiments were carried out in 10 mM Hepes-NaOH pH 7.4, 100 mM NaCl. Both the enzymes and the peptides were dissolved in the same buffer. The bindings were analysed with a MicroCal^TM iTC200 microcalorimeter (GE Healthcare, Life Sciences) equilibrated at the respective temperature. […] Every injection was carried out over a period of 4 s with a spacing of 110 s between the injections. […] These corrected values were plotted against the ratio peptide vs. protein concentration in the cell to generate the binding isotherm. Nonlinear least-squares fitting using Origin version 7.0 (Microcal) was used to obtain the association constants (K a), heats of binding (ΔH) and stoichiometries. […] The reported values are averages of at least two independent measurements.
A general note: In ITC the heat of successive injections is recorded.

Series [2] deals with cAMP-dependent protein kinase A (PKA-C). Particulars: NMR and molecular dynamics; ref [40]; cited from earlier work. The source says: Due to experimental challenges, the role of conformational entropy in molecular recognition by proteins has begun to be elucidated only recently, mainly by nuclear magnetic resonance (NMR) relaxation methods. Using NMR techniques and molecular dynamics simulations, Veglia and colleagues observed in cAMP-dependent protein kinase A (PKA-C) a similar binding mode to that of DPP11. […] Conversely, binding of the inhibitor PKI5-24 (protein ki ...

Series [3] deals with Porphyromonas endodontalis dipeptidyl peptidase 11, PeDPP11_(22-717) S652A (Porphyromonas endodontalis) (UniProt F8WQK8). The series is described as follows: ITC; peptide injected into PeDPP11 in the cell; 10 mM Hepes-NaOH pH 7.4, 100 mM NaCl; 25 °C; one-site binding model.
Series [4] deals with the molecule itself. The series is described as follows: SEC-MALS.

One may read the Kd as the free concentration of one partner at which half of the binding sites on the other are occupied at equilibrium, for simple one-to-one binding. Molecule `CC(C)C[C@H](N)C(=O)N[C@@H](CC(=O)O)C(=O)N[C@H](C(=O)N[C@@H](Cc1c[nH]c2ccccc12)C(=O)O)C(C)C` [LDVW, Leu-Asp-Val-Trp] (H-LDVW-OH) showed a Kd in series [1] (15 °C (288 K), 10 mM Hepes-NaOH pH 7.4, 100 mM NaCl, averages of at least two independent measurements) of 9 ± 0.7 µM.

Consider `CC(C)C[C@H](N)C(=O)N[C@@H](CC(=O)O)C(=O)O` [LD] (H-Leu-Asp-OH), for which the dissociation constant Kd in series [1] (10 °C (283 K), 10 mM Hepes-NaOH pH 7.4, 100 mM NaCl, 1.28 mM LD to 120 μM PeDPP11, averages of at least two independent measurements) worked out at 0.5 ± 0.1 µM; in series [1] (20 °C (293 K), 10 mM Hepes-NaOH pH 7.4, 100 mM NaCl, averages of at least two independent measurements), 1 ± 0.3 µM.

Molecule Arg-Asp [RD] showed a ΔH bind in series [1] (25 °C, 10 mM Hepes-NaOH pH 7.4, 100 mM NaCl, 600 μM LDVW to 60 μM, 810 μM LD to 75 μM, 1 mM LDL to 75 μM, 1.0 mM RD to 80 μM PeDPP11, averages of at least two independent measurements) of -15.5 kJ/mol. Further, in series [1] (25 °C, due to water displacement caused by peptide binding and concomitant domain motion), the “change in entropy on binding” value is given as “favourable change in entropy”. In addition, the “thermodynamic signature of binding” value in series [1] (25 °C, pH 7.4) is on record as “enthalpy-driven process”.

On to PKI5-24, for which, in series [2], the “effect on PKA-C protein dynamics” value is recorded as “stabilizes the protein, quenching the enzyme dynamics” and the “thermodynamic signature of binding to PKA-C” value is given as “enthalpically driven”.

With “PLN1-20: substrate PLN1-20 (phospholamban) of PKA-C (MEKVQYLTRSAIRRASTIEM; UniProt P26678 1-20, looked up, fragment)”, in series [2], the “effect on PKA-C protein dynamics” value is on record as “increased conformational dynamics” and the “thermodynamic signature of binding to PKA-C” value is reported as “entropically driven”.

Molecule dipeptide Arg-Asp came in with a dH in series [3] of -15.5 kJ/mol.

In series [3], dipeptide LD yielded a dH of -22 kJ/mol.

Molecule substrate peptide LDL had a dH in series [3] of 17 kJ/mol.

Turning to substrate peptide Leu-Asp-Val-Trp, the dH in series [3] was 23.8 kJ/mol.

B1: Porphyromonas endodontalis dipeptidyl peptidase 11, PeDPP11_(22-717) S652A (enzyme)
chain: DGGMWLMQQINGQVARMKSLGMQLEAADIYNPNGSSLKDAVVMFDGGCTGVLVSNQGLLLTNHHCGYDQIQKHSSVQHNYLKDGFWSYSLAEELVNPGLEVEIVDEITDVTAAVKKELERIKKPSGLEFLSPRYLSSLAPEIVGKKAASRPGYRYEIKAFYGGNRYYMFTKKVFRDVRLVAAPPSSIGKFGSDTDNWAWPRHTGDFSIFRLYADKNGNPAEYSKDNVPYRPKRWVKVNAQGVKEGDFALIMGYPGTTYKFFTADEVTEWSEIDNNIRIEMRGILQDVMLREMLADPKINIMYAAKYASSQNGYKRAQGANWAIRRRSLREIKLAQQQEVLAWAKQKGIATTEEAVRAISKAIEGRQDLRMRQRYLLEGILMGIEMSNAPAADSDIADHWDDPARREAGLQSIRKQFEAFFNKDYSPEVEKDQLAIALLTRYAERIPAEKQPISIREGIAEYGSAKAYVEMIFDKSIYASRERFEEFMKNPDRDRLLRDPMSRFAASVAYEHQKLAKEVAAFDAPLAAAQRSYVASVLDMKGQPNLAPDANLTLRFTYGEIKGYQPRDVVTYGAKSTLEGVMEKEDPNNWEYVVDPKLKALYEAKNYGRYANSDGSMPVNFCATTHTTGGNAGSPVMNARGELIGLNFDRNWEGVGGDIEYLPNYQRSIILDIRYLLFIIDKFAGCQRLIDEIQPQF
notes: also called PeDPP11_(altconf); source: E. coli BL21(DE3)pLysS, purified (HisTrap, SEC)
Broadly, the stoichiometry N is a count of units in the complex or per binding partner. For the molecule B1, the “stoichiometry N” value in series [4] turned out to be 2.

The values above are taken from article PMC5460201, “Bacterial protease uses distinct thermodynamic signatures for substrate recognition” (Scientific Reports, 2017).
